# Laboratory results as given in patent publication US8450479B2, “3-substituted-4-oxo-3,4-dihydro-imidazo[5,1-d][1,2,3,5-tetrazine-8-carboxylic acid amides and their use” (Pharminox Limited, priority 2007, dated 2013).
# Values joined by “and” are separate entries in the source; they are usually repeats but may differ in a detail not shown here. Identical values can stand only once. Like-named read-outs stand apart in the source and are kept apart here.
# What was measured:
# Format in all cases: cell-based
# [1] = system: glioma MGMT− and MGMT+ cell lines; assay: MTT assay, glioma lines as a whole
# Excerpt: (§1) This assay was first described in Mosmann, T., 1983, “Rapid colorimetric assay for cellular growth and survival: Application to proliferation and cytotoxicity assays”, Journal of Immunological Methods, Vol. 65, Nos. 1-2, pp. 55-63.
# (§2) Glioma cell lines, SNB19 and U373, both MGMT transfected (i.e., SNB19M and U373M) and vector controls (i.e., SNB19V and U373V); colorectal carcinoma cell lines, HCT116, HT29, and DLD1; melanoma cell line, SKMEL-28; breast cell line, MCF-7; and normal human fetal lung fibroblast cell line, MRC-5; were harvested at 60-80% confluence—during the logarithmic phase of growth.
# (§3) Following harvesting, cells in suspension were gently syringed through a 23 gauge needle to obtain a near-single cell suspension. The desired cell seeding densities were used and added into 96-well plates in 180 μL culture medium if only one test compound was to be added, or 160 μL if two test compounds were to be added in combination, which were allowed to attach at 37° C. (5% CO2) overnight. For the 7 day assay, the cell seeding density for different cell lines was as follows: SNB19V, SNB19M: 650 cells/well; U373V, U373M: 650 cells/well; SNB19VR, U373VR: 650 cells/well; HCT116, DLD-1, SKMEL-28, MRC-5, MCF-7: 400 cells/well.
# (§4) The two peripheral lanes were used as blank wells (cell free) and filled with 200 μL of medium in order to minimise medium evaporation from the plate. A separate time zero (T0) plate was set up alongside other plates. Serial dilutions in tissue culture medium of a 100 mM stock of test compound in DMSO were prepared immediately before each assay to ten times the final concentrations required, and then 20 μL was added to each well (200 μL total media per well) to achieve final concentrations of 0.5 μM, 1 μM, 5 μM, 10 μM, 50 μM, 100 μM, 500 μM, and 1000 μM. A minimum of four wells received the same test compound concentration. To control wells, including those in the T0 plate, 20 μL of medium was added. Previous assays had been carried out to verify that cell viability was not affected by the amount of DMSO added into the test compound-treated wells. A separate plate treated in the same way, but free of test compound, was used as a measure of cell viability at the time of drug addition (day 0).
# (§5) After incubation at 37° C., 5% CO2 for 7 days (or immediately for the day 0 plate), cell viability was quantified using the MTT assay. 50 μL of sterile filtered MIT (3-(4,5-dimethylthiazol-2-yl)-2,5-diphenyltetrazolium bromide) (2 mg/mL in phosphate buffered saline) were added to each well (final concentration 0.4 mg/mL) and the plates were re-incubated for 4 hours to allow metabolic conversion of MTT by dehydrogenases in viable cells to insoluble formazan crystals. The medium and any unconverted MTT was aspirated, 150 μL of DMSO was added to each well, and the plates were shaken on a plate shaker (Stuart Scientific 503) to ensure complete formazan solubilisation.
# The intensity of absorbance is directly proportional to cell viability. A linear relationship exists between cell number and the amount of formazan and so the mean absorbance determined for each well of the same concentration can be used as a quantitative measure of viable cells compared to the controls. A graph of absorbance against drug concentration was plotted and the test compound concentration (GI50) causing 50% inhibition of control cell growth (absorbance increase from day 0) was calculated by interpolation.
# Glioma U373M (MGMT+) = assay: MTT assay for 7-day toxicity assay; conditions: Glioma U373M (MGMT+), 7-day MTT, single determinations
# Method: (§6) The cell culture techniques were carried out in a Class II microbiological safety cabinet which was swabbed with 70% IMS in distilled water before each use. […] MRC-5 cells were cultured in EMEM. Cells were grown in a humidified incubator containing 5% CO2 at 37° C. Cells were sub-cultured when growth exceeded approximately 80% confluence, normally twice weekly. The medium was aspirated from the flask and approximately 0.8 mL trypsin-EDTA 1× solution added. The cells were re-incubated at 37° C. until they visibly detached from the flask. The cell suspension was then re-suspended in 5 mL medium and 0.5-1 mL of the cell suspension was transferred to a new flask (25 cm^2) with 7 mL culture medium. The cells were further incubated at 37° C. incubator. Cells were disposed after passage nearly 30 times in order to minimize phenotypic drift. New batches of cells were taken from liquid nitrogen storage by thawing rapidly (37° C. water bath) and re-suspension in a 25 cm^2 flask with 10 mL of culture medium. Two passages were allowed to resume normal growth. For long-term maintenance, viable cells at 60-80% confluence were detached by minimum amount of trypsin/EDTA and re-suspended in sterile filtered freezing medium (95% FBS, 5% DMSO), transferred to sterile cryogenic vials, and frozen overnight at −20° C. followed by −80° C. for 1-2 days and stored in liquid nitrogen for long term storage.
# (§7) Most test compounds, including temozolomide, were prepared as stock solution (100 mM) in DMSO and stored at −20° C. for not more than 6 months.
# as §2, §3
# as §4, with “Previous assays had been carried out to verify that cell viability was not affected by the amount of DMSO added into the test compound-treated wells.” left out
# as §5, with “crystals.” for “crystals. The medium and any unconverted MTT was aspirated, 150 μL of DMSO was added to each well, and the plates were shaken on a plate shaker (Stuart Scientific 503) to ensure complete formazan solubilisation.”
# (§8) The intensity of absorbance is directly proportional to cell viability.
# Glioma SNB19V (MGMT−) = assay: MTT assay for 7-day toxicity assay; conditions: Glioma SNB19V (MGMT−), 7-day MTT, single determinations
# Method: as §6, §7, §2, §3
# as §4, with “Previous assays had been carried out to verify that cell viability was not affected by the amount of DMSO added into the test compound-treated wells.” left out
# as §5, with “crystals.” for “crystals. The medium and any unconverted MTT was aspirated, 150 μL of DMSO was added to each well, and the plates were shaken on a plate shaker (Stuart Scientific 503) to ensure complete formazan solubilisation.”
# as §8
# Glioma SNB19M (MGMT+) = assay: MTT assay for 7-day toxicity assay; conditions: Glioma SNB19M (MGMT+), 7-day MTT, single determinations
# Method: as §6, §7, §2, §3
# as §4, with “Previous assays had been carried out to verify that cell viability was not affected by the amount of DMSO added into the test compound-treated wells.” left out
# as §5, with “crystals.” for “crystals. The medium and any unconverted MTT was aspirated, 150 μL of DMSO was added to each well, and the plates were shaken on a plate shaker (Stuart Scientific 503) to ensure complete formazan solubilisation.”
# as §8
# [2] = system: Colon HT29 (MMR proficient); assay: MTT assay for 7-day toxicity assay; conditions: Homo sapiens, HT-29, 168 h, Colon HT29 (MMR proficient); 7-day MTT; single determinations; read-out: GI50
# Method: (§9) The cell culture techniques were carried out in a Class II microbiological safety cabinet which was swabbed with 70% IMS in distilled water before each use. Glioma cells were routinely cultured in Costar tissue culture flasks in RPMI 1640 liquid medium (containing 0.3 g/L L-glutamine and 2 g/L sodium bicarbonate) supplemented with 10% heat inactivated FBS (55-59° C.) for 1 hour to denature complement proteins which would otherwise evoke a cellular immune response resulting in cell lysis, 1% non-essential amino acids, 50 μg/mL gentamicin and 400 μg/mL G418 (vector selected reagent). Colorectal and melanoma cells were maintained in RPMI 1640 supplemented with 10% FBS. MRC-5 cells were cultured in EMEM. Cells were grown in a humidified incubator containing 5% CO2 at 37° C. Cells were sub-cultured when growth exceeded approximately 80% confluence, normally twice weekly. The medium was aspirated from the flask and approximately 0.8 mL trypsin-EDTA 1× solution added. The cells were re-incubated at 37° C. until they visibly detached from the flask. The cell suspension was then re-suspended in 5 mL medium and 0.5-1 mL of the cell suspension was transferred to a new flask (25 cm^2) with 7 mL culture medium. The cells were further incubated at 37° C. incubator. Cells were disposed after passage nearly 30 times in order to minimize phenotypic drift. New batches of cells were taken from liquid nitrogen storage by thawing rapidly (37° C. water bath) and re-suspension in a 25 cm^2 flask with 10 mL of culture medium. Two passages were allowed to resume normal growth. For long-term maintenance, viable cells at 60-80% confluence were detached by minimum amount of trypsin/EDTA and re-suspended in sterile filtered freezing medium (95% FBS, 5% DMSO), transferred to sterile cryogenic vials, and frozen overnight at −20° C. followed by −80° C. for 1-2 days and stored in liquid nitrogen for long term storage.
# as §7, §1, §2, §3
# (§10) The two peripheral lanes were used as blank wells (cell free) and filled with 200 μL of medium in order to minimise medium evaporation from the plate. A separate time zero (T0) plate was set up alongside other plates. Serial dilutions in tissue culture medium of a 100 mM stock of test compound in DMSO were prepared immediately before each assay to ten times the final concentrations required, and then 20 μL was added to each well (200 μL total media per well) to achieve final concentrations of 0.5 μM, 1 μM, 5 μM, 10 μM, 50 μM, 100 μM, 500 μM, and 1000 μM. A minimum of four wells received the same test compound concentration. […]
# Colon DLD1 = assay: MTT assay for 7-day toxicity assay; conditions: Homo sapiens, DLD-1, 168 h; Colon DLD1; 7-day MTT; single determinations; read-out: GI50
# Method: as §9, §7, §1, §2, §3, §10
# [3] = system: Melanoma SKMEL-28 (MMR proficient); assay: MTT assay for 7-day toxicity assay; conditions: Homo sapiens, SK-MEL-28, 168 h, Melanoma SKMEL-28 (MMR proficient); 7-day MTT; single determinations; read-out: GI50
# Method: as §9, §7, §1, §2, §3, §10
# [4] = system: Colon HCT116 (MMR mutated); assay: MTT assay for 7-day toxicity assay; conditions: Colon HCT116 (MMR mutated), 7-day MTT, single determinations, read-out: GI50
# Method: as §9, §7, §1, §2, §3, §10
# Glioma U373V (MGMT low) = assay: MTT assay for 7-day toxicity assay; conditions: Glioma U373V (MGMT low), 7-day MTT, single determinations
# Method: as §6, §7, §2, §3
# as §4, with “Previous assays had been carried out to verify that cell viability was not affected by the amount of DMSO added into the test compound-treated wells.” left out
# as §5, with “crystals.” for “crystals. The medium and any unconverted MTT was aspirated, 150 μL of DMSO was added to each well, and the plates were shaken on a plate shaker (Stuart Scientific 503) to ensure complete formazan solubilisation.”
# as §8
# [5] = system: Normal Human Fetal Lung Fibroblast MRC-5; assay: MTT assay for 7-day toxicity assay; conditions: Normal Human Fetal Lung Fibroblast MRC-5, 7-day MTT, single determinations, read-out: GI50
# Method: as §9, §7, §1, §2, §3, §10
# [6] = system: Glioma SNB19VR (MGMT−) (TMZ resistant); assay: MTT assay for 7-day toxicity assay; conditions: Glioma SNB19VR (MGMT−, TMZ resistant), 7-day MTT, single determinations, read-out: GI50
# Method: as §9, §7, §1, §2, §3, §10
smiles,measurement,setting,value
"CCOC(=O)CCn1nnc2c(C(N)=O)ncn2c1=O [LL-002, Ethyl 3-(8-carbamoyl-oxoimidazo[5,1-d][1,2,3,5]tetrazin-3(4H)-yl)propanoate]",fold less active than the acetic acid ester derivatives LL-003 and PX-016,"[1]; Table 10, glioma cell lines",> 10 fold
same,GI50,"Glioma U373M (MGMT+); 168 h, read-out: GI50",156 µM
same,GI50,Glioma U373M (MGMT+); read-out: GI50,131 µM
same,GI50,"Glioma SNB19V (MGMT−); 168 h, read-out: GI50",447 µM
same,GI50,Glioma SNB19V (MGMT−); read-out: GI50,288 µM
same,GI50,"Glioma SNB19M (MGMT+); 168 h, read-out: GI50",248 µM
same,GI50,Glioma SNB19M (MGMT+); read-out: GI50,261 µM
"NC(=O)c1ncn2c(=O)n(CCc3ccccc3)nnc12 [DD-001, 4-oxo-3-phenethyl-3,4-dihydroimidazo[5,1-d][1,2,3,5]tetrazine-8-carboxamide]",GI50,[2],498 µM
same,GI50,Colon DLD1,385 µM
same,GI50,[3],424 µM
same,GI50,"[4]; Homo sapiens, HCT-116, 168 h",302 µM
same,GI50,Glioma SNB19V (MGMT−); 168 h,77 µM
same,GI50,Glioma SNB19V (MGMT−),128 µM and 91.1 µM
same,GI50,Glioma SNB19M (MGMT+); 168 h,95 µM
same,GI50,Glioma SNB19M (MGMT+),70.2 µM and 92.6 µM
"C[C@@H](c1ccccc1)n1nnc2c(C(N)=O)ncn2c1=O [BB-002, (S)-3-(−1-Phenylethyl)-8-carbamoylimidazotetrazin-4-one]",GI50,[2],243 µM
same,GI50,[3],222 µM
same,GI50,"[4]; Homo sapiens, HCT-116, 168 h",206 µM
same,GI50,Glioma U373M (MGMT+); 168 h,69.6 µM
same,GI50,Glioma U373M (MGMT+),95 µM
same,GI50,Glioma SNB19V (MGMT−); 168 h,35.3 µM
same,GI50,Glioma SNB19V (MGMT−),34.1 µM
same,GI50,Glioma U373V (MGMT low); 168 h,61.6 µM
same,GI50,Glioma U373V (MGMT low),70.7 µM
same,GI50,Glioma SNB19M (MGMT+); 168 h,41.2 µM
same,GI50,Glioma SNB19M (MGMT+),49.7 µM
"NC(=O)Cn1nnc2c(C(N)=O)ncn2c1=O [JJ-001, 2-(8-Carbamoyl-oxoimidazo[5,1-d][1,2,3,5]tetrazin-3(4H)-yl)ethanamide]",activity in words,[1]; glioma MGMT− and MGMT+ cell lines,good activity
same,GI50,"Glioma U373M (MGMT+); 168 h, read-out: GI50",86.7 µM
same,GI50,Glioma U373M (MGMT+); read-out: GI50,58 µM
same,GI50,"Glioma SNB19V (MGMT−); 168 h, read-out: GI50",37.5 µM
same,GI50,Glioma SNB19V (MGMT−); read-out: GI50,38.5 µM
same,GI50,"Glioma U373V (MGMT low); 168 h, read-out: GI50",56.2 µM
same,GI50,Glioma U373V (MGMT low); read-out: GI50,74.6 µM
same,GI50,"Glioma SNB19M (MGMT+); 168 h, read-out: GI50",107 µM
same,GI50,Glioma SNB19M (MGMT+); read-out: GI50,83.2 µM
NC(=O)c1ncn2c(=O)n(Cc3ccco3)nnc12 [PX-004],GI50,[2],27.2 µM
same,GI50,"[5]; Homo sapiens, MRC5, 168 h",60.3 µM
same,GI50,[5],55.5 µM
same,GI50,Colon DLD1,45.4 µM
same,GI50,[6]; 168 h,50.1 µM
same,GI50,[6],52.5 µM
same,GI50,[3],53.4 µM
same,GI50,[4],55.6 µM
same,GI50,"[4]; Homo sapiens, HCT-116, 168 h",70.9 µM
